Consider two compounds from patent US9969964B2, “Disease-on-a-chip” (Purdue Research Foundation, priority 2013, dated 2018).

The assay has as its system T4-2 tumor nodules. In words: Apoptosis (TUNEL assay combined with DAPI scoring of pyknotic and karyorrhectic nuclei) of T4-2 tumor nodules treated with chemotherapeutic drugs. Format: cell-based. Particulars: for sensitivity of tumor nodules to drug (apoptosis): T4-2 nodules cocultured with S1 non-neoplastic breast epithelium on flat surfaces compared to monocultures of tumor nodules, FIG. 21 and 22; for sensitivity of cancer cells to drug (apoptosis): T4-2 nodules cocultured with S1 within semicircular hemichannels versus on flat surfaces. An excerpt:
The findings described above prompted a test of the sensitivity of T4-2 tumor nodules to the chemotherapeutic drugs bleomycin (BLM, a radiomimetic agent used in the laboratory to study cellular responses to treatments that compromise genome integrity) and doxorubicin (DOX, an anthracycline used for the treatment of breast cancer). In this study, apoptosis was utilized as an endpoint to evaluate drug responses and was quantified using the TUNEL assay combined with visual scoring for pyknotic and karyorrhectic nuclei via DAPI staining (i.e. nuclear condensation and fragmentation, respectively). Three types of T4-2 nodules were compared: monocultures, cocultures with S1 luminal epithelium on the flat surface of the chip, and cocultures with S1 epithelium in the semicircular hemichannels.
This difference is intriguing and could not be explained by the proliferation status within nodules on flat surfaces and in hemichannels (27.5%±1.8% and 24.2%±2.5% Ki67-positive cells, respectively; P=0.292, unpaired t-test, n>10 nodule sections corresponding to >700 nuclei). […] It is possible that the microenvironment or the geometry in the hemichannels promotes modifications in the nuclear organization of tumor cells, which may influence cellular responses to cytotoxic drugs. This view is supported by the measured differences in nuclear circularity reported above, and is in agreement with early recommendations that nuclear morphometric descriptors, including roundness, should be investigated as possible predictors of response to therapy. The disease-on-a-chip system used for coculture with cancer cells provides a system with potential for improved understanding of cancer development and drug assessment in tissue context.

In the case of `COc1cccc2c1C(=O)c1c(O)c3c(c(O)c1C2=O)C[C@@](O)(C(=O)CO)C[C@@H]3O[C@H]1C[C@H](N)[C@H](O)[C@H](C)O1` [DOX, doxorubicin], the “sensitivity of tumor nodules to drug (apoptosis)” value was “increased sensitivity” and the “sensitivity of cancer cells to drug (apoptosis)” value was “significantly less”.

In the case of bleomycin [BLM], the “sensitivity of tumor nodules to drug (apoptosis)” value was “increased sensitivity” and the “sensitivity of cancer cells to drug (apoptosis)” value is recorded as “significantly less”. For the same compound, the “toxicity to T4-2 nodules” value (drug concentration chosen to ease detection of increased sensitivity to genotoxic stress, should minimally affect cell survival) is on record as “low toxicity”.
